Laboratory results as given in ChEMBL document CHEMBL5104175, “Scaffold hopping from indoles to indazoles yields dual MCL-1/BCL-2 inhibitors from MCL-1 selective leads” (RSC Med Chem, 2022).

Each molecule was assayed against Apoptosis regulator Bcl-2 (Homo sapiens, UniProt P10415) (assay: Inhibition of BCL-2 (unknown origin) by fluorescence polarization competition assay).
Apoptosis regulator Bcl-2, sequence (P10415 whole entry): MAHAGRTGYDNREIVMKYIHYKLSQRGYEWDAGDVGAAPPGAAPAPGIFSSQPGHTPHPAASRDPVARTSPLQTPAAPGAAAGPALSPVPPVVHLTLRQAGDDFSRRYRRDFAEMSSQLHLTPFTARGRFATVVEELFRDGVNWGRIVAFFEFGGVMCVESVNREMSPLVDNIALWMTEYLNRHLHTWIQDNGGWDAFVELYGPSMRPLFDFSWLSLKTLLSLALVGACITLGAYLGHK

SMILES | Ki
Cc1cc(Oc2ccc(Cn3nc4ccc(Cl)cc4c3C(=O)NS(=O)(=O)c3ccc(NCc4ccco4)c([N+](=O)[O-])c3)cc2)cc(C)c1Cl | 570 nM
Cc1cc(Oc2ccc(Cn3nc4ccc(Cl)cc4c3C(=O)NS(=O)(=O)c3ccc(NCc4ccn(C)n4)c([N+](=O)[O-])c3)cc2)cc(C)c1Cl | 600 nM
Cc1cc(Oc2ccc(Cn3nc4ccc(Cl)cc4c3C(=O)NS(=O)(=O)c3ccc(NCc4cccnc4)c([N+](=O)[O-])c3)cc2)cc(C)c1Cl | 1180 nM
Cc1cc(Oc2ccc(Cn3nc4ccc(Cl)cc4c3C(=O)NS(=O)(=O)c3ccc([N+](=O)[O-])c(NCc4cccnc4)c3)cc2)cc(C)c1Cl | 1220 nM
Cc1cc(Oc2ccc(Cn3nc4ccc(Cl)cc4c3C(=O)NS(=O)(=O)c3ccc(NCCc4ccco4)c([N+](=O)[O-])c3)cc2)cc(C)c1Cl | 620 nM
Cc1cc(Oc2ccc(Cn3nc4ccc(Cl)cc4c3C(=O)NS(=O)(=O)c3ccc([N+](=O)[O-])c(NCCc4ccncc4)c3)cc2)cc(C)c1Cl | 770 nM
Cc1cc(Oc2ccc(Cn3nc4ccc(Cl)cc4c3C(=O)NS(=O)(=O)c3ccc(NCCc4cccnc4)c([N+](=O)[O-])c3)cc2)cc(C)c1Cl | 460 nM
Cc1cc(Oc2ccc(Cn3nc4ccc(Cl)cc4c3C(=O)NS(=O)(=O)c3ccc(NCCc4ccncc4)c([N+](=O)[O-])c3)cc2)cc(C)c1Cl | 660 nM
Cc1cc(Oc2ccc(Cn3nc4ccc(Cl)cc4c3C(=O)NS(=O)(=O)c3ccc(Cl)cc3)cc2)cc(C)c1Cl | 510 nM
Cc1cc(Oc2ccc(Cn3nc4ccc(Cl)cc4c3C(=O)NS(=O)(=O)c3ccc([N+](=O)[O-])c(NCc4ccco4)c3)cc2)cc(C)c1Cl | 960 nM
Cc1cc(Oc2ccc(Cn3nc4ccc(Cl)cc4c3C(=O)NS(=O)(=O)c3ccc([N+](=O)[O-])c(NCc4ccncc4)c3)cc2)cc(C)c1Cl | 710 nM
Cc1cc(Oc2ccc(Cn3nc4ccc(Cl)cc4c3C(=O)NS(=O)(=O)c3ccc([N+](=O)[O-])c(NCc4ccn(C)n4)c3)cc2)cc(C)c1Cl | 710 nM
Cc1cc(Oc2ccc(Cn3nc4ccc(Cl)cc4c3C(=O)NS(=O)(=O)c3ccc([N+](=O)[O-])c(NCCc4cccnc4)c3)cc2)cc(C)c1Cl | 460 nM
Cc1cc(Oc2ccc(Cn3nc4ccc(Cl)cc4c3C(=O)NS(=O)(=O)c3ccc([N+](=O)[O-])c(N4CCOCC4)c3)cc2)cc(C)c1Cl | 900 nM
Cc1cc(Oc2ccc(Cn3nc4ccc(Cl)cc4c3C(=O)NS(=O)(=O)c3ccc(NCCN4CCOCC4)c([N+](=O)[O-])c3)cc2)cc(C)c1Cl | 420 nM
Cc1cc(Oc2ccc(Cn3nc4ccc(Cl)cc4c3C(=O)NS(=O)(=O)c3ccc(NCc4ccncc4)c([N+](=O)[O-])c3)cc2)cc(C)c1Cl | 1520 nM
Cc1cc(Oc2ccc(Cn3nc4ccc(Cl)cc4c3C(=O)NS(=O)(=O)c3ccc(N4CCOCC4)c([N+](=O)[O-])c3)cc2)cc(C)c1Cl | 530 nM
Cc1cc(Oc2ccc(Cn3nc4ccc(Cl)cc4c3C(=O)NS(=O)(=O)c3ccc([N+](=O)[O-])c(NCCc4ccco4)c3)cc2)cc(C)c1Cl | 840 nM

What follows are molecules tested against Bcl-2-like protein 1 (Homo sapiens, UniProt Q07817) (assay: Inhibition of BCL-xL (unknown origin) by fluorescence polarization competition assay).
Bcl-2-like protein 1, sequence (Q07817 whole entry): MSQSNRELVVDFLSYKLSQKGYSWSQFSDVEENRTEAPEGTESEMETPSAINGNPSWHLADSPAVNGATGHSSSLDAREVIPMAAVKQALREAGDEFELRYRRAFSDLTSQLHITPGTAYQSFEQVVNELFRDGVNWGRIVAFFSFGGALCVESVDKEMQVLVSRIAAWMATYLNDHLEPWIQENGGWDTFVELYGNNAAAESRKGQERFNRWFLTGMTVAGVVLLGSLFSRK

SMILES | Ki
Cc1cc(Oc2ccc(Cn3nc4ccc(Cl)cc4c3C(=O)NS(=O)(=O)c3ccc(NCc4ccco4)c([N+](=O)[O-])c3)cc2)cc(C)c1Cl | > 10000 nM
Cc1cc(Oc2ccc(Cn3nc4ccc(Cl)cc4c3C(=O)NS(=O)(=O)c3ccc(NCc4ccn(C)n4)c([N+](=O)[O-])c3)cc2)cc(C)c1Cl | 3450 nM
Cc1cc(Oc2ccc(Cn3nc4ccc(Cl)cc4c3C(=O)NS(=O)(=O)c3ccc(NCc4cccnc4)c([N+](=O)[O-])c3)cc2)cc(C)c1Cl | 4420 nM
Cc1cc(Oc2ccc(Cn3nc4ccc(Cl)cc4c3C(=O)NS(=O)(=O)c3ccc([N+](=O)[O-])c(NCc4cccnc4)c3)cc2)cc(C)c1Cl | > 10000 nM
Cc1cc(Oc2ccc(Cn3nc4ccc(Cl)cc4c3C(=O)NS(=O)(=O)c3ccc(NCCc4ccco4)c([N+](=O)[O-])c3)cc2)cc(C)c1Cl | 3400 nM
Cc1cc(Oc2ccc(Cn3nc4ccc(Cl)cc4c3C(=O)NS(=O)(=O)c3ccc(NCCc4cccnc4)c([N+](=O)[O-])c3)cc2)cc(C)c1Cl | > 10000 nM
Cc1cc(Oc2ccc(Cn3nc4ccc(Cl)cc4c3C(=O)NS(=O)(=O)c3ccc(NCCc4ccncc4)c([N+](=O)[O-])c3)cc2)cc(C)c1Cl | > 10000 nM
Cc1cc(Oc2ccc(Cn3nc4ccc(Cl)cc4c3C(=O)NS(=O)(=O)c3ccc(Cl)cc3)cc2)cc(C)c1Cl | > 10000 nM
Cc1cc(Oc2ccc(Cn3nc4ccc(Cl)cc4c3C(=O)NS(=O)(=O)c3ccc([N+](=O)[O-])c(NCc4ccco4)c3)cc2)cc(C)c1Cl | > 10000 nM
Cc1cc(Oc2ccc(Cn3nc4ccc(Cl)cc4c3C(=O)NS(=O)(=O)c3ccc([N+](=O)[O-])c(NCc4ccncc4)c3)cc2)cc(C)c1Cl | > 10000 nM
Cc1cc(Oc2ccc(Cn3nc4ccc(Cl)cc4c3C(=O)NS(=O)(=O)c3ccc([N+](=O)[O-])c(NCc4ccn(C)n4)c3)cc2)cc(C)c1Cl | 7410 nM
Cc1cc(Oc2ccc(Cn3nc4ccc(Cl)cc4c3C(=O)NS(=O)(=O)c3ccc([N+](=O)[O-])c(NCCc4cccnc4)c3)cc2)cc(C)c1Cl | > 10000 nM
Cc1cc(Oc2ccc(Cn3nc4ccc(Cl)cc4c3C(=O)NS(=O)(=O)c3ccc([N+](=O)[O-])c(N4CCOCC4)c3)cc2)cc(C)c1Cl | 6660 nM
Cc1cc(Oc2ccc(Cn3nc4ccc(Cl)cc4c3C(=O)NS(=O)(=O)c3ccc(NCc4ccncc4)c([N+](=O)[O-])c3)cc2)cc(C)c1Cl | > 10000 nM
Cc1cc(Oc2ccc(Cn3nc4ccc(Cl)cc4c3C(=O)NS(=O)(=O)c3ccc(N4CCOCC4)c([N+](=O)[O-])c3)cc2)cc(C)c1Cl | 7990 nM
Cc1cc(Oc2ccc(Cn3nc4ccc(Cl)cc4c3C(=O)NS(=O)(=O)c3ccc([N+](=O)[O-])c(NCCc4ccco4)c3)cc2)cc(C)c1Cl | > 10000 nM

What follows are molecules tested against Induced myeloid leukemia cell differentiation protein Mcl-1 (Homo sapiens, UniProt Q07820) (assay: Inhibition of MCL-1 (unknown origin) by fluorescence polarization competition assay).
Induced myeloid leukemia cell differentiation protein Mcl-1, sequence (Q07820 whole entry): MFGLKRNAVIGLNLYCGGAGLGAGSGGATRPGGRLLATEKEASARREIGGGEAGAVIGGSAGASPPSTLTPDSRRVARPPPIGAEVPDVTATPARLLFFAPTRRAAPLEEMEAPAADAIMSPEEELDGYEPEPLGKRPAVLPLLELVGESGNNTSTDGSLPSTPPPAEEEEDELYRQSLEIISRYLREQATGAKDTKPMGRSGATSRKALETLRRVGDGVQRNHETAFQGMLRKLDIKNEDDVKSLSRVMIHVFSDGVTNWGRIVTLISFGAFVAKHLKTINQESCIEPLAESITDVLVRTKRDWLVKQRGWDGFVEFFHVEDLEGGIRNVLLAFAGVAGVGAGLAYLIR

SMILES | Ki
Cc1cc(Oc2ccc(Cn3nc4ccc(Cl)cc4c3C(=O)NS(=O)(=O)c3ccc(NCc4ccco4)c([N+](=O)[O-])c3)cc2)cc(C)c1Cl | 1300 nM
Cc1cc(Oc2ccc(Cn3nc4ccc(Cl)cc4c3C(=O)NS(=O)(=O)c3ccc(NCc4ccn(C)n4)c([N+](=O)[O-])c3)cc2)cc(C)c1Cl | 1570 nM
Cc1cc(Oc2ccc(Cn3nc4ccc(Cl)cc4c3C(=O)NS(=O)(=O)c3ccc(NCc4cccnc4)c([N+](=O)[O-])c3)cc2)cc(C)c1Cl | 1120 nM
Cc1cc(Oc2ccc(Cn3nc4ccc(Cl)cc4c3C(=O)NS(=O)(=O)c3ccc([N+](=O)[O-])c(NCc4cccnc4)c3)cc2)cc(C)c1Cl | 1000 nM
Cc1cc(Oc2ccc(Cn3nc4ccc(Cl)cc4c3C(=O)NS(=O)(=O)c3ccc(NCCc4ccco4)c([N+](=O)[O-])c3)cc2)cc(C)c1Cl | 1280 nM
Cc1cc(Oc2ccc(Cn3nc4ccc(Cl)cc4c3C(=O)NS(=O)(=O)c3ccc([N+](=O)[O-])c(NCCc4ccncc4)c3)cc2)cc(C)c1Cl | 1420 nM
Cc1cc(Oc2ccc(Cn3nc4ccc(Cl)cc4c3C(=O)NS(=O)(=O)c3ccc(NCCc4cccnc4)c([N+](=O)[O-])c3)cc2)cc(C)c1Cl | 1460 nM
Cc1cc(Oc2ccc(Cn3nc4ccc(Cl)cc4c3C(=O)NS(=O)(=O)c3ccc(NCCc4ccncc4)c([N+](=O)[O-])c3)cc2)cc(C)c1Cl | 1770 nM
Cc1cc(OCCCn2nc3ccc(Cl)cc3c2C(=O)O)cc(C)c1Cl | > 10000 nM
Cc1cc(Oc2ccc(Cn3nc4ccc(Cl)cc4c3C(=O)NS(=O)(=O)c3ccc(Cl)cc3)cc2)cc(C)c1Cl | 1200 nM
Cc1cc(OCCn2nc3ccc(Cl)cc3c2C(=O)O)cc(C)c1Cl | > 10000 nM
Cc1cc(Oc2ccc(Cn3nc4ccc(Cl)cc4c3C(=O)NS(=O)(=O)c3ccc([N+](=O)[O-])c(NCc4ccco4)c3)cc2)cc(C)c1Cl | 1680 nM
Cc1cc(Oc2ccc(Cn3nc4ccc(Cl)cc4c3C(=O)NS(=O)(=O)c3ccc([N+](=O)[O-])c(NCc4ccncc4)c3)cc2)cc(C)c1Cl | 1360 nM
Cc1cc(Oc2ccc(Cn3nc4ccc(Cl)cc4c3C(=O)NS(=O)(=O)c3ccc([N+](=O)[O-])c(NCc4ccn(C)n4)c3)cc2)cc(C)c1Cl | 1950 nM
Cc1cc(OCCCn2c(C(=O)O)nc3ccccc32)cc(C)c1Cl | > 10000 nM
Cc1cc(Oc2ccc(Cn3nc4ccc(Cl)cc4c3C(=O)NS(=O)(=O)c3ccc([N+](=O)[O-])c(NCCc4cccnc4)c3)cc2)cc(C)c1Cl | 1460 nM
Cc1cc(Oc2ccc(Cn3nc(C(=O)O)c4cc(Cl)ccc43)cc2)cc(C)c1Cl | 2280 nM
Cc1cc(Oc2ccc(Cn3nc4ccc(Cl)cc4c3C(=O)NS(=O)(=O)c3ccc([N+](=O)[O-])c(N4CCOCC4)c3)cc2)cc(C)c1Cl | 2300 nM
Cc1cc(Oc2ccc(Cn3nc4ccc(Cl)cc4c3C(=O)NS(=O)(=O)c3ccc(NCCN4CCOCC4)c([N+](=O)[O-])c3)cc2)cc(C)c1Cl | 1610 nM
Cc1cc(Oc2ccc(Cn3nc4ccc(Cl)cc4c3C(=O)NS(=O)(=O)c3ccc(NCc4ccncc4)c([N+](=O)[O-])c3)cc2)cc(C)c1Cl | 1650 nM
Cc1cc(Oc2ccc(Cn3nc4ccc(Cl)cc4c3C(=O)NS(=O)(=O)c3ccc(N4CCOCC4)c([N+](=O)[O-])c3)cc2)cc(C)c1Cl | 1320 nM
Cc1cc(Oc2ccc(Cn3nc4ccc(Cl)cc4c3C(=O)NS(=O)(=O)c3ccc([N+](=O)[O-])c(NCCc4ccco4)c3)cc2)cc(C)c1Cl | 2160 nM
